ChEMBL document CHEMBL1201862, “PubChem BioAssay data set” (2004)
Calls of active or inactive are those of the source.

Assays:
[1] = target: T1, Polyadenylate-binding protein 1 (Homo sapiens, UniProt P11940); assay: MLLE domain peptide-binding blockers, IC50 – biochemical, fluorescence polarization, FITC-PAM2 peptide, dose response (AID 602259); type: functional; conditions: read-out: IC50_Mean
[2] = target: T2, Mannose-6-phosphate isomerase (Homo sapiens, UniProt P34949); assay: MPI inhibition at elevated mannose 6-phosphate – biochemical, fluorescence intensity, high mannose 6-phosphate, primary screen (AID 1220)
T2 sequence (P34949 whole entry): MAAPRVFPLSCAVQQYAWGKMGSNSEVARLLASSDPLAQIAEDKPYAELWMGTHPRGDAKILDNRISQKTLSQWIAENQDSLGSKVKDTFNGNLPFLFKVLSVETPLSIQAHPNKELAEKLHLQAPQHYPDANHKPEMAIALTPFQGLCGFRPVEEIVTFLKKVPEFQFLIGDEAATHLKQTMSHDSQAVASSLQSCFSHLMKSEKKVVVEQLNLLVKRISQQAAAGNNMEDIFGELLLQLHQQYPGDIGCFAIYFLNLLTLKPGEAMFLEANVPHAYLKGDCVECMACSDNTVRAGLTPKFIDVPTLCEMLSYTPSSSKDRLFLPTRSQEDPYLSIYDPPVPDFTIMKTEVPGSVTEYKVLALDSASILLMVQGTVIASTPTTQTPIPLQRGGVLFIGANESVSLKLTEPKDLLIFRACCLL

Nonstructural protein 1 = Nonstructural protein 1 (Influenza A virus, UniProt Q194T2); type: functional, Influenza A virus (A/California/07/2009(H1N1))
[3] = target: T1, Polyadenylate-binding protein 1; assay: MLLE binding blockers, Cy5 peptide tracer – biochemical, fluorescence polarization, Cy5-PAM2 peptide, secondary, miRNA deadenylation inhibitor project, dose response (AID 602260); type: functional; conditions: read-out: IC50_Mean
Vero = assay: inhibition of WNV-induced cytopathic effect – cell-based, CPE readout (AID 1621); type: functional; conditions: Chlorocebus sabaeus
[4] = target: T3, Carboxy-terminal domain RNA polymerase II polypeptide A small phosphatase 1 (Homo sapiens, UniProt Q9GZU7); assay: CTDSP1 inhibitors, concentration-response, biochemical, absorbance readout, ultra-high-throughput screen actives (AID 540297); type: functional
T3 sequence (Q9GZU7 whole entry): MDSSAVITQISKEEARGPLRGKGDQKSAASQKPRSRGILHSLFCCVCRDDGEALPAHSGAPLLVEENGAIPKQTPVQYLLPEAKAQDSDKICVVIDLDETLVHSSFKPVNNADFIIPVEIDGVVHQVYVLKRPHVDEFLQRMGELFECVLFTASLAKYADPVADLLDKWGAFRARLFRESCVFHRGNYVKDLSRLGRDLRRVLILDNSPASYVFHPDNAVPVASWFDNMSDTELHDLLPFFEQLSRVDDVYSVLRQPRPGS

Estrogen receptor = target: T4, Estrogen receptor (Homo sapiens, UniProt P03372);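 further: potency for inhibiting coactivator peptide recruitment to the receptor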
T4 sequence (P03372 whole entry): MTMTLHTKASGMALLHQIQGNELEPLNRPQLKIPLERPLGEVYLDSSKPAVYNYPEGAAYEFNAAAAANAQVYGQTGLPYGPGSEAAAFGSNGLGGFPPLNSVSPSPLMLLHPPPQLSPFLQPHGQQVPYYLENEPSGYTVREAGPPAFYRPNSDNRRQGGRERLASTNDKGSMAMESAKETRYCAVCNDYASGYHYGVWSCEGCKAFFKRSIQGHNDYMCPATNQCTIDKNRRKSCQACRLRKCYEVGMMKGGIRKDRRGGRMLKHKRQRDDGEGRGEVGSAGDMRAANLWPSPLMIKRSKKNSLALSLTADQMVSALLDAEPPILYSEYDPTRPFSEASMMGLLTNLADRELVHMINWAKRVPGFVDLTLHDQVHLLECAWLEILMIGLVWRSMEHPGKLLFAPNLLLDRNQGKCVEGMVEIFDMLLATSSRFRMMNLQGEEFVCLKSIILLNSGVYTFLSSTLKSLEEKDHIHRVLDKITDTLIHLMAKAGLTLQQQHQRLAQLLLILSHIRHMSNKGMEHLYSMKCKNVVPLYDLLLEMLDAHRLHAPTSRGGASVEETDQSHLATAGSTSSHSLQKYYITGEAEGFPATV

[5] = Counterscreen for IDE inhibitors: Luminescence-based cell-based high throughput dose response assay to identify compounds that are cytotoxic to HEK cells. [Related pubchem assays: 434962 (Primary screen (IDE inhibitors in singlicate)), 449730 (Counterscreen (Cytotoxicity in triplicate)), 435028 (Confirmation (IDE inhibitors in triplicate)) …; type: functional; conditions: HEK293
Insulin-degrading enzyme = Insulin-degrading enzyme (Homo sapiens, UniProt P14735); assay: Dose Response: Fluorescence polarization-based cell-based high throughput dose response assay for inhibitors of insulin-degrading enzyme (IDE). [Related pubchem assays: 434962 (Primary screen (IDE inhibitors in singlicate)), 449730 (Counterscreen (Cytotoxicity in triplicate)), 435028 (Confirmation (IDE inhibitors in triplicate)), 434984 (Summary …; type: functional
Hexokinase HKDC1 = target: T5, Hexokinase HKDC1 (Homo sapiens, UniProt Q2TB90); assay: inhibition of HKDC1 glucose phosphorylation – biochemical, W721R variant, dose response (AID 504729); type: functional
T5 sequence (Q2TB90 whole entry): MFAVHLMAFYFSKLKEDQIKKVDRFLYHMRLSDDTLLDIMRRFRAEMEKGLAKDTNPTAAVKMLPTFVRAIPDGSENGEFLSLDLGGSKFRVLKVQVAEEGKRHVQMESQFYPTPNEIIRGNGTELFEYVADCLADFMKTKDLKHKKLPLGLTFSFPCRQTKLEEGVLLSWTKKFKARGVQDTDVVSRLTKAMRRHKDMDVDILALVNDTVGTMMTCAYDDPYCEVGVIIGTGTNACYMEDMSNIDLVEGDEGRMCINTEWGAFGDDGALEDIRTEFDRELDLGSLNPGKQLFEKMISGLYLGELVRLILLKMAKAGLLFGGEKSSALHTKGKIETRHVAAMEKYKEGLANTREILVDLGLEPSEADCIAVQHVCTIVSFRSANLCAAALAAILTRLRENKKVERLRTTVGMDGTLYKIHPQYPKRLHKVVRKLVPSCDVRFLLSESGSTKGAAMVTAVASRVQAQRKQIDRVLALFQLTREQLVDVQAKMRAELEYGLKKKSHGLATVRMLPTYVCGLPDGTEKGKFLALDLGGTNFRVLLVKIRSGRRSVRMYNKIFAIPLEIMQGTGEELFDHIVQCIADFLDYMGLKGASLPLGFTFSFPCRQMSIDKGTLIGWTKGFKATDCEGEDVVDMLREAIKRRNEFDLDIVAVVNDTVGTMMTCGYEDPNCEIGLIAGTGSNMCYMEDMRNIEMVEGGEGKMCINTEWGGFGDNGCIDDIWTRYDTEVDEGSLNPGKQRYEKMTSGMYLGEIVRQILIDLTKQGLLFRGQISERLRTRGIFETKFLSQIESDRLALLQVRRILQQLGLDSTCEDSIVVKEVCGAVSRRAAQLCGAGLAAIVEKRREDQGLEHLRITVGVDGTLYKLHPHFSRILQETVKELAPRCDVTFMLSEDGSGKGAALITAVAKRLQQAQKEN

Genome polyprotein = Genome polyprotein (dengue virus type 2, UniProt P29990); assay: flavivirus cap methylation enzyme inhibition – biochemical, confirmation dose response, primary screen (AID 588689); type: functional
[6] = target: Heat shock protein HSP 90-alpha (Homo sapiens, UniProt P07900); type: functional, organism-based
[7] = viability loss in THP-1 monocytes – THP-1 cells, cytotoxicity control for Vif-APOBEC3G degradation inhibitor project, dose response (AID 1117359); type: functional; conditions: THP-1
Beta Lactamase = Beta Lactamase (Pseudomonas aeruginosa, UniProt Q932Y6); assay: BLA reporter interference, concentration series – BLA reporter cells, FRET fluorescence, artefact control for TLR9-MyD88 binding inhibitor project, dose response (AID 588341); type: cell-based;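 further: cell based assay in CHO-K1 cells stably expressing beta-lactamase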
[8] = target: T6, Histone-lysine N-methyltransferase NSD2 (Homo sapiens, UniProt O96028); type: biochemical
T6 sequence (O96028 whole entry): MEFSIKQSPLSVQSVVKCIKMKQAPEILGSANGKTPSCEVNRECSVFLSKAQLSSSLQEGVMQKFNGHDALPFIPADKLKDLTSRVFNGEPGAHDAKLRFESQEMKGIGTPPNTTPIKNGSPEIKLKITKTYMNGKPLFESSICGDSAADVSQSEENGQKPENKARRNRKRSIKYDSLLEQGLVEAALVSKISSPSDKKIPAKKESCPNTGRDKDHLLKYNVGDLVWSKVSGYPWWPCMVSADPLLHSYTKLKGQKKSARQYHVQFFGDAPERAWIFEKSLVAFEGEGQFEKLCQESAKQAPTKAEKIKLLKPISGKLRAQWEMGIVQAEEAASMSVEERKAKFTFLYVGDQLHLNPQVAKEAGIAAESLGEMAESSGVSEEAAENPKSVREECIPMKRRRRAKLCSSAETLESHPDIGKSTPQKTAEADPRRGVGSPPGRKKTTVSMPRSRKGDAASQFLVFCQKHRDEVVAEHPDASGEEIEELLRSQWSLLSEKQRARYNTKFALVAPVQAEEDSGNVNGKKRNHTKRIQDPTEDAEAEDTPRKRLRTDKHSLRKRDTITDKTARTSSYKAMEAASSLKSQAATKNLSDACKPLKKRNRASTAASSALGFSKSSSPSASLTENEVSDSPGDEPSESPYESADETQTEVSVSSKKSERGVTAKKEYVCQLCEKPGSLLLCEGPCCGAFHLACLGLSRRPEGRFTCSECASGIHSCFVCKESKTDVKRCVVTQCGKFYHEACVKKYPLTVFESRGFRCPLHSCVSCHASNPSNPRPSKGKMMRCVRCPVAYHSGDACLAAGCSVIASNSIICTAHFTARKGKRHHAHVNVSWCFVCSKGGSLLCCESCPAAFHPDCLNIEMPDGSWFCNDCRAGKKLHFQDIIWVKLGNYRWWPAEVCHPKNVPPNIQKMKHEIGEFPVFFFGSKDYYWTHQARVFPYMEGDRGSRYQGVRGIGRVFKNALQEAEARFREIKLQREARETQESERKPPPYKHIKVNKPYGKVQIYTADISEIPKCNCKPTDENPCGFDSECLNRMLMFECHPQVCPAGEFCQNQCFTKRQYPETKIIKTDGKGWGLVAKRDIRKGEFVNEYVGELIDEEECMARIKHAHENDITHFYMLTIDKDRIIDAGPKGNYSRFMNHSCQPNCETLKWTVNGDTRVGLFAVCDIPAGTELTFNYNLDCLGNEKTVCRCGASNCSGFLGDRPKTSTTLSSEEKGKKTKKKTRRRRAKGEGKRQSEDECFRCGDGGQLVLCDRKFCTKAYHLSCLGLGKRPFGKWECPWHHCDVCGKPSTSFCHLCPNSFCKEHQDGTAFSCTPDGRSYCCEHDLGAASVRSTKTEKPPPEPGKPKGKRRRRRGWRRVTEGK

CHO = CHO cell viability loss, potency – luminescence, cytotoxicity control for TLR9-MyD88 binding inhibitor project, dose response (AID 588339); type: functional, cell-based, hamster; conditions: Cricetulus griseus;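 further: CHO cells stably coexpressing TLR9 and MyD88 fusions from primary screen; compound exposure lasted 48 hours before viability readout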
[9] = target: G2/mitotic-specific cyclin-B1 (Homo sapiens, UniProt P14635); assay: Counterscreen assay for inhibitors of Wee1 degradation: dose response cell-based assay to identify inhibitors of cyclin B degradation. [Related pubchem assays: 1410, 1321 ]; type: functional
Wee1-like protein kinase = Wee1-like protein kinase (Homo sapiens, UniProt P30291); assay: Dose Response Cell-based Assay for Inhibitors of Wee1 Degradation. [Related pubchem assays: 1410, 1321 ]; type: functional
[10] = target: T7, Low molecular weight phosphotyrosine protein phosphatase (Homo sapiens, UniProt P24666); assay: inhibition of human LMPTP enzyme activity – biochemical, absorbance, pNPP substrate, LMPTP-A isoform, set 2, orthogonal assay, dose response (AID 743308); type: functional
T7 sequence (P24666 whole entry): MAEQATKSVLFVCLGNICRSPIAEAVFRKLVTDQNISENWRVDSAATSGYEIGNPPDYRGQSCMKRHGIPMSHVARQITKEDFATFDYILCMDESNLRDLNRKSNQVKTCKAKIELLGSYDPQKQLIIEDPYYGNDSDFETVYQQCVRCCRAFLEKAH

[11] = target: T7, Low molecular weight phosphotyrosine protein phosphatase; assay: inhibition of LMPTP-A enzymatic activity – biochemical, OMFP substrate, fluorescence intensity, set 2, dose response (AID 743307); type: functional

T1 sequence (P11940 whole entry, the tested form may be a part): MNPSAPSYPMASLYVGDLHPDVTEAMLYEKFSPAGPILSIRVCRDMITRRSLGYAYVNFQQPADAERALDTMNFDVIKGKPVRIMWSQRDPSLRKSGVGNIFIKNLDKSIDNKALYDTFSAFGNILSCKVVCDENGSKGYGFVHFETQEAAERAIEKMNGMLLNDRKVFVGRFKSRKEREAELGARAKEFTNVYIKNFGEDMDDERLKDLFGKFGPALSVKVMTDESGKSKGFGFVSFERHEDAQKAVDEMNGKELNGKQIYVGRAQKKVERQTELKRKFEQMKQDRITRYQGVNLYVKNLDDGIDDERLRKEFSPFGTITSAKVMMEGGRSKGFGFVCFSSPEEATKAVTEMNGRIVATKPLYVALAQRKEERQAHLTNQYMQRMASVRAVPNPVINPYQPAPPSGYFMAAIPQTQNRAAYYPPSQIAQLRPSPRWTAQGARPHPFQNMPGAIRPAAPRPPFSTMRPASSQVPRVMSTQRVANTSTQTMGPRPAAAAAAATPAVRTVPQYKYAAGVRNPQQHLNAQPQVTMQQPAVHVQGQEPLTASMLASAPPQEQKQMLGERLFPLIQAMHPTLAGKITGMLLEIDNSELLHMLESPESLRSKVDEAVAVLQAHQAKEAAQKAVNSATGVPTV
Sequence of Insulin-degrading enzyme (P14735 whole entry): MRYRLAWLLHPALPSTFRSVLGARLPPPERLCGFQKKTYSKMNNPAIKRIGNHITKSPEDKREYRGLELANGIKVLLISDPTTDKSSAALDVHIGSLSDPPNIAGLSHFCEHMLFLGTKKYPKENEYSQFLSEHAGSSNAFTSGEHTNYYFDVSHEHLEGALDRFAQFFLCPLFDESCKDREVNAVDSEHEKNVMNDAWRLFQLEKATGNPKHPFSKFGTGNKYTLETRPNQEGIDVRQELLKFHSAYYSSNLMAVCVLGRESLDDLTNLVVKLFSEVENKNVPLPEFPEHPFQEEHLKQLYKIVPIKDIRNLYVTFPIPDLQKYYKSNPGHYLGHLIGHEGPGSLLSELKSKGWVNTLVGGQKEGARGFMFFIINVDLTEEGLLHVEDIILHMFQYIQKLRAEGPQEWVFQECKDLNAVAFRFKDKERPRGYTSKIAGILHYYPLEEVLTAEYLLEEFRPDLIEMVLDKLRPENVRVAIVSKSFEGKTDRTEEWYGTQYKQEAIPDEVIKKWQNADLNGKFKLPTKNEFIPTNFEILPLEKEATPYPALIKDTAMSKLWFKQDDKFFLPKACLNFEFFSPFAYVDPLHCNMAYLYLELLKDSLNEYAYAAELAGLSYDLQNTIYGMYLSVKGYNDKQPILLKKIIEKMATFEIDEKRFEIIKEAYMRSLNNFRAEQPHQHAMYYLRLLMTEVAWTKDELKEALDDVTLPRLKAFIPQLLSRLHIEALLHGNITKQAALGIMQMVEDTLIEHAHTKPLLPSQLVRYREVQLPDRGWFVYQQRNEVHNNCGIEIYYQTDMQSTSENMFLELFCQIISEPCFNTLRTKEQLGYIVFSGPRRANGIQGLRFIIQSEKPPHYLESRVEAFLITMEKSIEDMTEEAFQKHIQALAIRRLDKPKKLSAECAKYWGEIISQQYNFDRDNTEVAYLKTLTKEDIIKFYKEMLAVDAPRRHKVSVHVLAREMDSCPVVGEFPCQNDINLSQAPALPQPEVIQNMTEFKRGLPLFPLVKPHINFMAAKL
Sequence of Beta Lactamase (Q932Y6 whole entry): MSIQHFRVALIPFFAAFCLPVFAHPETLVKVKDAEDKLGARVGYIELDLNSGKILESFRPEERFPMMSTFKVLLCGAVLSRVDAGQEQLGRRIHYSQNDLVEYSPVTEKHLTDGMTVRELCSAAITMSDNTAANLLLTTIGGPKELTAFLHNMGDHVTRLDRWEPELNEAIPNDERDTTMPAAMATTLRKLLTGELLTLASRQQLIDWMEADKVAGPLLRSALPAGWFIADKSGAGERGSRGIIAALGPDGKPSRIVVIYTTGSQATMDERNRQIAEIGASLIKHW
Sequence of Wee1-like protein kinase (P30291 whole entry, canonical isoform): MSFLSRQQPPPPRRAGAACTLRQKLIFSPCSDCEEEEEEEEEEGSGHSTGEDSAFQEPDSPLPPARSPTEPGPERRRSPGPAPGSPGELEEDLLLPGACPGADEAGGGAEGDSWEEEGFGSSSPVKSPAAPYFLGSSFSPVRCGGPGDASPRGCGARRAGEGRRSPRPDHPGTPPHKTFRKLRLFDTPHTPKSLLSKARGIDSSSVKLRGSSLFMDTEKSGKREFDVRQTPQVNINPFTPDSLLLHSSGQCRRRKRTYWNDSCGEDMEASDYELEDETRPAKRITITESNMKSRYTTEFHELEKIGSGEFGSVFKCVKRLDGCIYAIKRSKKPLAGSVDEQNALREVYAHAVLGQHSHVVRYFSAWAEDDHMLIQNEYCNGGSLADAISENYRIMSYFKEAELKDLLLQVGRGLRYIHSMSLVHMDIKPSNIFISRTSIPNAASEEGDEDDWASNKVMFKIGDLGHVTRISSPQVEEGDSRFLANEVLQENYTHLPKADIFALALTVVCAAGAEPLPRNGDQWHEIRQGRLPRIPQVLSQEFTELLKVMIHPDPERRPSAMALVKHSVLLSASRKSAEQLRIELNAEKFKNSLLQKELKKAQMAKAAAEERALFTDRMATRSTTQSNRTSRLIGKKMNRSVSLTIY
Sequence of G2/mitotic-specific cyclin-B1 (P14635 whole entry): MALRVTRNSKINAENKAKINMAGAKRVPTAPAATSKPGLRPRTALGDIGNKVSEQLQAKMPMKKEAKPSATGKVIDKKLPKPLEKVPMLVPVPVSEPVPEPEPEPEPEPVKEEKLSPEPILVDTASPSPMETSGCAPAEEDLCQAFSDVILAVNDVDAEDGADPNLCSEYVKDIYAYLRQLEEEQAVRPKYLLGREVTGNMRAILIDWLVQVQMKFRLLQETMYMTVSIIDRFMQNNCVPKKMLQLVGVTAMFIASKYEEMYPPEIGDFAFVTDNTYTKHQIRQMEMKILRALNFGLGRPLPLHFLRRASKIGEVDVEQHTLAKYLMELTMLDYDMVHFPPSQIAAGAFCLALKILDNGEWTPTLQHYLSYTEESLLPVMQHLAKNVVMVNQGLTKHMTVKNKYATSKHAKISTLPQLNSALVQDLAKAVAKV
Sequence of Nonstructural protein 1 (Q194T2 whole entry): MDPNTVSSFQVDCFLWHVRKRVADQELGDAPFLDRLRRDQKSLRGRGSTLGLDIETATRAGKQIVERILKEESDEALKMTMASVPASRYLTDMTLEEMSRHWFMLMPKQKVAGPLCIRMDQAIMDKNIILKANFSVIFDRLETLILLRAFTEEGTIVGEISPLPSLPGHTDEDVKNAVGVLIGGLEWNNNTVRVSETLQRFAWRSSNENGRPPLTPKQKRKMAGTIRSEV
Sequence of Genome polyprotein (P29990 2492-3391 limits assumed): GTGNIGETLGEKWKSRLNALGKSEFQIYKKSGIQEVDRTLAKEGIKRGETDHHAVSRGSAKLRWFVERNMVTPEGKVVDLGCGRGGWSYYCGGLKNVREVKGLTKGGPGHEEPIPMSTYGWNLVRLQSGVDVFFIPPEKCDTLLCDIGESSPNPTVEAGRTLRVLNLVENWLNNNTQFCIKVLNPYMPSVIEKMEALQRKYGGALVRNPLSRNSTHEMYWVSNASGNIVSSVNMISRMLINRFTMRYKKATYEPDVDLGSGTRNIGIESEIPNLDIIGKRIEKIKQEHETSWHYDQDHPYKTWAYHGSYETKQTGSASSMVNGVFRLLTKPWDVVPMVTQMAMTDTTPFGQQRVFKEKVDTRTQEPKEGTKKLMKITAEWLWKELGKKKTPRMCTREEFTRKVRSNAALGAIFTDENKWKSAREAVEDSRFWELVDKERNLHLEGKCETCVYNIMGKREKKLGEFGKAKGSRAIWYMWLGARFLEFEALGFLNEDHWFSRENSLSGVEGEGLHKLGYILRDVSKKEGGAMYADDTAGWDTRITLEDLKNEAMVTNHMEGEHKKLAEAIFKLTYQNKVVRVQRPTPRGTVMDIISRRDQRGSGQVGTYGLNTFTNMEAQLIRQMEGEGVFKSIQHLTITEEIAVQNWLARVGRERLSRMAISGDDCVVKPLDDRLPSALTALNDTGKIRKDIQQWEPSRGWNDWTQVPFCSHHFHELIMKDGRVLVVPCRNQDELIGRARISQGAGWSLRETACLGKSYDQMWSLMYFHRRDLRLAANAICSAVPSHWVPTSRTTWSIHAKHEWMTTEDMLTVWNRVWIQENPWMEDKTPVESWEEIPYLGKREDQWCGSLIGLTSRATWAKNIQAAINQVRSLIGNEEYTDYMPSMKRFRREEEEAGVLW

O=C(O)CNC(=O)CC1SC(NN=C2CSC(=O)N2)=NC1=O (stereo unspecified)
IC50 [1]: > 66 µM (inactive)
IC50 [2]: 46.3 µM (active)
IC50 (Nonstructural protein 1): 7.74 µM (active)
IC50 [3]: > 66 µM (inactive)

Cc1ccc(C)c(CN2C(=O)c3ccccc3[S+]([O-])c3ccc(C(=O)NCCCN4CCCC4)cc32)c1 (stereo unspecified)
IC50 (Vero): 22 µM (active)

Cc1sc2ncnc(SCC(=O)NC(=O)NCc3ccco3)c2c1C
IC50 [4]: 10.6 µM (active)
IC50 (Estrogen receptor): 11.5 µM (active)

CCCCc1c(C)nc2ccc(Br)cc2c1SC(N)N
IC50 [2]: > 50 µM (not active)

CN(C)CCNS(=O)(=O)c1ccc(N2CCN(c3ccc(F)cc3)CC2)c([N+](=O)[O-])c1
IC50 (Vero): 20 µM (active)

Nc1c2c(nc3ccn(-c4ccccc4)c(=O)c13)CCCCC2
IC50 [5]: 22.3 µM (not active)
IC50 (Insulin-degrading enzyme): > 55.9 µM (not active)

C=CCN(C(=O)COC(=O)c1cc[n+]([O-])cc1)c1nc(-c2ccccc2)cs1
IC50 [5]: 50.6 µM (not active)
IC50 (Insulin-degrading enzyme): 4.84 µM (active)

O=C1C(Cl)=C(Oc2ccccc2)C(=O)c2ccccc21
IC50 (Hexokinase HKDC1): 4.47 µM (active)
IC50 (Genome polyprotein): 4.63 µM (active)
AC50 [6]: 2.7 µM (active)
CC50 [7]: > 40 µM (active)
IC50 (Beta Lactamase): 10.2 µM (inactive)
AC50 [8]: 0.598 µM (active)
IC50 (CHO): 0.738 µM (active)

O/C(=C\c1nc2ccccc2nc1O)c1cccs1
EC50 [9]: > 49.7 µM (not active)
EC50 (Wee1-like protein kinase): > 49.7 µM (not active)

c1ccc(-c2nc(NCCCN3CCCCC3)c3ccccc3n2)cc1
IC50 [10]: 38.6 µM (inactive)
IC50 [11]: 21.9 µM (inactive)

Clc1ccccc1-c1cc(NCCCN2CCCCC2)c2ccccc2n1
IC50 [10]: 32.5 µM (inactive)
IC50 [11]: 11.6 µM (active)
